# Assay results reported in patent publication US20240091324A1, “GASTROINTESTINAL HEALTH COMPOSITION” (priority 2019, published 2024).
# Key:
# Format in all cases: cell-based, human
# [1] = system: IL-8 release from Caco-2 monolayers; assay: Release of IL-8 from polarised Caco-2 monolayers stimulated with LPS, TNF-α, IFN-β; settings: for % increase in anti-inflammatory activity compared to equivalent formulation without bromelain (difference of means): plus 80 ug/ml bromelain
# Experimental: Inflammatory model of Caco-2 polarised monolayer stimulated with inflammatory mediators LPS, TNF-α, IFN-β: Polarised Caco-2 models were generated as previously described. When cell cultures reached a baseline TER of >1000/cm^2, the monolayers were stimulated by addition of 0.6 ml containing 50 ng/ml IFN-β, 10 μg/ml LPS and 5 ng/ml TNFα to the basolateral compartment. Immediately after the addition of the stimulation cocktail 0.25 ml of GaRP±0-80 μg/ml bromelain was applied to the apical compartment. After the 24 h incubation culture supernatants from the apical side were collected for quantitation of IL-8.
# The human colorectal adenocarcinoma cell-line C2BBe1 was grown and maintained in Dulbecco's modified Eagle's medium (DMEM) supplemented with 10% v/v fetal bovine serum (FBS), 4 mM L-glutamine, 100 U/ml penicillin and […] streptomycin. All experiments were conducted on C2BBe1 cells within 12 passages after thawing.
# In an experiment to evaluate the anti-inflammatory effect of bromelain or various GaRP formulations, 0.25 ml of test samples was applied to the apical side for 24 h, at the same time 0.6 ml of a cocktail containing 50 ng/ml IFN+10 ug/ml LPS+5 ng/ml TNF was added to the basolateral side in this model. After the 24 h incubation culture supernatants from the apical side were collected and IL-8 quantitated by ELISA.
# Macrophage = assay: Observed therapeutic effective dose determined in the in vitro experiments (Table 4)
# Experimental: (§1) The observed therapeutic effective dose was determined in the in vitro experiments described herein.
# (§2) Table 4 summarises the observed therapeutic effective dose for each GaRP formulation component.
# Enterocyte = assay: as above
# Experimental: as §1, §2
# [2] = formulation or component plus 80 ug/ml bromelain, 24 h
# [3] = without bromelain, test sample apical 24 h, IFN+LPS+TNF cocktail basolateral
smiles,measurement,setting,value
N=C(N)NCCC[C@H](N)C(=O)O [L-arginine],% inhibition of the release of IL-8 Median ± SEM,[1]; [2],73 ± 8%
same,% increase in anti-inflammatory activity compared to equivalent formulation without bromelain (difference of means),[1],67%
same,% inhibition of the release of IL-8 Median ± SEM,[1]; [3],6 ± 8%
NC(=O)CC[C@H](N)C(=O)O [L-glutamine],% inhibition of the release of IL-8 Median ± SEM,[1]; [2],83 ± 1%
same,% increase in anti-inflammatory activity compared to equivalent formulation without bromelain (difference of means),[1],72%
same,% inhibition of the release of IL-8 Median ± SEM,[1]; [3],11 ± 7%
CSCC[C@H](N)C(=O)O [L-methionine],% inhibition of the release of IL-8 Median ± SEM,[1]; [2],73 ± 10%
same,% increase in anti-inflammatory activity compared to equivalent formulation without bromelain (difference of means),[1],53%
same,% inhibition of the release of IL-8 Median ± SEM,[1]; [3],20 ± 5%
C[C@@H](O)[C@H](N)C(=O)O [L-threonine],% inhibition of the release of IL-8 Median ± SEM,[1]; [2],73 ± 11%
same,% increase in anti-inflammatory activity compared to equivalent formulation without bromelain (difference of means),[1],55%
same,% inhibition of the release of IL-8 Median ± SEM,[1]; [3],18 ± 1%
same,"observed therapeutic effective dose, Target cell Macrophage (pg/cell)",Macrophage,300 pg/cell
same,"observed therapeutic effective dose, Target cell Enterocyte (pg/cell)",Enterocyte,15 pg/cell
